In a compilation of properties of binary mixtures (doi:10.1007/s10953-023-01246-7):

Assay: xn = mol fraction of the nth substance listed
Settings: 100 kPa

For `CCOS(=O)(=O)[O-].CC[n+]1ccn(C)c1` + OCCO, the viscosity (293.15 K, x1 = 0.1982) was 17.96 mPa·s, the viscosity (293.15 K, x1 = 0.4002) was 25.17 mPa·s and the viscosity (293.15 K, x1 = 0.5005) was 32.09 mPa·s. It also gave a viscosity (293.15 K, x1 = 0.5992) of 40.31 mPa·s, a viscosity (293.15 K, x1 = 0.6994) of 54.7 mPa·s and a viscosity (293.15 K, x1 = 0.8001) of 70.3 mPa·s. It also gave a viscosity (293.15 K, x1 = 0.8993) of 99.9 mPa·s, a viscosity (298.15 K, x1 = 0.1003) of 14.75 mPa·s and a viscosity (298.15 K, x1 = 0.1982) of 15.08 mPa·s. For the same compound, the viscosity (298.15 K, x1 = 0.2999) was 17.32 mPa·s, the viscosity (298.15 K, x1 = 0.4002) was 21.18 mPa·s and the viscosity (298.15 K, x1 = 0.5005) was 26.88 mPa·s. The viscosity (298.15 K, x1 = 0.5992) was 33.49 mPa·s, the viscosity (298.15 K, x1 = 0.6994) was 44.9 mPa·s and the viscosity (298.15 K, x1 = 0.8001) was 56.9 mPa·s. It also gave a viscosity (298.15 K, x1 = 0.8993) of 78.4 mPa·s, a viscosity (303.15 K, x1 = 0.1003) of 12.28 mPa·s and a viscosity (303.15 K, x1 = 0.1982) of 12.75 mPa·s. For the same compound, the viscosity (303.15 K, x1 = 0.2999) was 14.69 mPa·s, the viscosity (303.15 K, x1 = 0.4002) was 17.95 mPa·s and the viscosity (303.15 K, x1 = 0.5005) was 22.71 mPa·s. It also gave a viscosity (303.15 K, x1 = 0.8001) of 46.47 mPa·s, a viscosity (303.15 K, x1 = 0.8993) of 62.8 mPa·s and a viscosity (308.15 K, x1 = 0.1003) of 10.4 mPa·s. It also gave a viscosity (308.15 K, x1 = 0.4002) of 15.42 mPa·s, a viscosity (308.15 K, x1 = 0.5005) of 19.35 mPa·s and a viscosity (308.15 K, x1 = 0.5992) of 23.73 mPa·s. For the same compound, the viscosity (308.15 K, x1 = 0.6994) was 31.11 mPa·s, the viscosity (308.15 K, x1 = 0.8001) was 38.47 mPa·s and the viscosity (308.15 K, x1 = 0.8993) was 51.2 mPa·s. It also gave a viscosity (313.15 K, x1 = 0.1003) of 8.88 mPa·s, a viscosity (313.15 K, x1 = 0.2999) of 10.94 mPa·s and a viscosity (313.15 K, x1 = 0.4002) of 13.31 mPa·s. The viscosity (313.15 K, x1 = 0.5005) was 16.65 mPa·s, the viscosity (313.15 K, x1 = 0.5992) was 20.23 mPa·s and the viscosity (313.15 K, x1 = 0.6994) was 26.27 mPa·s. The viscosity (313.15 K, x1 = 0.8001) was 32.2 mPa·s, the viscosity (313.15 K, x1 = 0.8993) was 42.22 mPa·s and the viscosity (318.15 K, x1 = 0.1003) was 7.67 mPa·s. The viscosity (318.15 K, x1 = 0.2999) was 9.49 mPa·s, the viscosity (318.15 K, x1 = 0.5005) was 14.46 mPa·s and the viscosity (318.15 K, x1 = 0.5992) was 17.49 mPa·s. For the same compound, the viscosity (318.15 K, x1 = 0.6994) was 22.38 mPa·s, the viscosity (323.15 K, x1 = 0.1982) was 7.16 mPa·s and the viscosity (323.15 K, x1 = 0.2999) was 8.38 mPa·s. The viscosity (323.15 K, x1 = 0.4002) was 10.19 mPa·s, the viscosity (323.15 K, x1 = 0.5005) was 12.56 mPa·s and the viscosity (323.15 K, x1 = 0.5992) was 15.18 mPa·s. For the same compound, the viscosity (323.15 K, x1 = 0.6994) was 19.32 mPa·s, the viscosity (323.15 K, x1 = 0.8001) was 23.28 mPa·s and the viscosity (323.15 K, x1 = 0.8993) was 29.87 mPa·s. For the same compound, the viscosity (328.15 K, x1 = 0.1003) was 5.8 mPa·s, the viscosity (328.15 K, x1 = 0.1982) was 6.26 mPa·s and the viscosity (328.15 K, x1 = 0.2999) was 7.45 mPa·s. The viscosity (328.15 K, x1 = 0.4002) was 9.03 mPa·s, the viscosity (328.15 K, x1 = 0.5005) was 11.07 mPa·s and the viscosity (328.15 K, x1 = 0.5992) was 13.32 mPa·s. It also gave a viscosity (328.15 K, x1 = 0.6994) of 16.79 mPa·s, a viscosity (328.15 K, x1 = 0.8001) of 20.18 mPa·s and a viscosity (328.15 K, x1 = 0.8993) of 25.55 mPa·s. The viscosity (333.15 K, x1 = 0.2999) was 6.62 mPa·s, the viscosity (333.15 K, x1 = 0.4002) was 8.07 mPa·s and the viscosity (333.15 K, x1 = 0.5992) was 11.79 mPa·s. It also gave a viscosity (333.15 K, x1 = 0.6994) of 14.74 mPa·s, a viscosity (333.15 K, x1 = 0.8001) of 17.49 mPa·s and a viscosity (333.15 K, x1 = 0.8993) of 22.02 mPa·s. The viscosity (338.15 K, x1 = 0.1003) was 4.53 mPa·s, the viscosity (338.15 K, x1 = 0.1982) was 4.97 mPa·s and the viscosity (338.15 K, x1 = 0.2999) was 5.94 mPa·s. For the same compound, the viscosity (338.15 K, x1 = 0.4002) was 7.19 mPa·s, the viscosity (338.15 K, x1 = 0.5005) was 8.77 mPa·s and the viscosity (338.15 K, x1 = 0.6994) was 13.02 mPa·s. It also gave a viscosity (338.15 K, x1 = 0.8001) of 15.39 mPa·s, a viscosity (338.15 K, x1 = 0.8993) of 19.13 mPa·s and a viscosity (343.15 K, x1 = 0.1003) of 4.03 mPa·s. The viscosity (343.15 K, x1 = 0.1982) was 4.47 mPa·s, the viscosity (343.15 K, x1 = 0.2999) was 5.33 mPa·s and the viscosity (343.15 K, x1 = 0.4002) was 6.46 mPa·s. For the same compound, the viscosity (343.15 K, x1 = 0.6994) was 11.55 mPa·s and the viscosity (343.15 K, x1 = 0.8993) was 16.8 mPa·s.
